Experiments:
MRSA [1] = experiment: Pure compound activity against MRSA (ESKAPE pathogens); assay type: cell-based, Staphylococcus aureus; settings: for IC50: pure compound
Leishmania donovani = experiment: Infected macrophage model of the Leishmania donovani parasite; assay type: cell-based; settings: for IC50: read-out: L. donovani IC50
MRSA [2] = experiment: MRSA drug wash-out study / MBC99; assay type: cell-based, Staphylococcus aureus

Row | Substance | IC50 (MRSA [1]) [µM] | IC50 (Leishmania donovani) [µM] | further results
1 | Phomopsichromin E [Compound 5] | 515 | 0.8 | 
2 | LL-Z1272ε [Compound 6] |  |  | L. donovani IC50 (μM) (Leishmania donovani): neither phomopsichromin D (4) nor LL-Z1272ε (6) showed any activity; activity towards the macrophages (macrophages): neither phomopsichromin D (4) nor LL-Z1272ε (6) showed any activity
3 | Phomopsichromin D [Compound 4] |  |  | L. donovani IC50 (μM) (Leishmania donovani): neither phomopsichromin D (4) nor LL-Z1272ε (6) showed any activity; activity towards the macrophages (macrophages): neither phomopsichromin D (4) nor LL-Z1272ε (6) showed any activity
4 | Phomopsichromin C [Compound 3] | 58 | 0.67 | MIC against MRSA (MRSA [1]): 58 µM; drug wash-out study: bactericidal or not (MRSA [2]): bactericidal
5 | Phomopsichromin A [Compound 1] | 518 | 3 | 
6 | Phomopsichromin B [Compound 2] | 515 | 1.9 | 
7 | gentamicin [reference compound] |  |  | MRSA MBC99 (MRSA [2]): 20 µM
